Usually IC50 stands for the concentration that gives 50% inhibition. A lower IC50 goes with higher potency.

Consider 23 compounds from patent US10189845B2, “4,6-substituted-pyrazolo[1,5-a]pyrazines as janus kinase inhibitors” (ARRAY BIOPHARMA INC., priority 2014, dated 2019).

Like-named read-outs stand apart in the source and are kept apart here.

Format in all cases: biochemical
One assay concerns the target Human Tyk2 kinase domain (Homo sapiens (Human), UniProt P29597). In words: Tyk2 Inhibition Assay (Example A, Omnia kinase fluorescence peptide substrate assay). The note with it: TYK2 Enzyme IC50 1 mM ATP, averaged IC50 ranges. From the text: (§1) The assays described in Examples A, B, C and D for the determination of Tyk2, JAK1, JAK2 and JAK3 kinase activity, respectively, utilized the Omnia® Kinase fluorescence peptide substrate-based technology (Invitrogen). The specific components of the assay mixture are described in Examples A, B, C and D. In these assays, Mg^2+ is chelated upon phosphorylation of the Omnia peptide by the kinase to form a bridge between the chelation-enhanced fluorophore Sox and the phosphate, resulting in an increase in fluorescence emission at 485 nm when excited at […]. The reactions were therefore read at excitation 360 nm and emission was measured at 485 nm every 50 seconds for 45 minutes using a PerkinElmer EnVision Multilabel Plate Reader.
(§2) The final buffer conditions for Tyk2, JAK1, JAK2, and JAK3 assays were as follows: 25 mM HEPES, pH 7.4, 10 mM MgCl2, 0.01% Triton X-100 and 1 mM DTT.
(§3) Two-μL aliquots of these were transferred to a fresh plate for a ten-fold intermediate dilution with assay buffer. Five-μL aliquots of the diluted compounds were then transferred to 20-μL of assay mixtures described in Examples A, B, C and D for a final concentration of DMSO of 2%. […] For each plate, percent of control (POC) values were calculated for each well according to the following equation: […]
(§4) IC50's were estimated from the POC's using a standard 4-parameter logistic model:
(§5) The IC50 is defined as the concentration of inhibitor at which the POC equals 50 for the fitted curve.
Compounds of Formula I were screened for their ability to inhibit Tyk2 using the general enzyme inhibition assay method, in which the assay mixture contained 1 mM ATP, 8 μM Omnia Y12 peptide (Catalog # IVGN KPZ3121C; Invitrogen Corporation, Carlsbad, Calif.) and 1 nM Tyk2 in a total volume of 25 μL. Human Tyk2 kinase domain, comprising amino acids 886 to 1187 with 10 additional histidine residues (histidine tag) on the carboxy terminus, was expressed and purified from bacculovirus in-house at Array BioPharma Inc. (Boulder, Colo.). The histidine tag was cleaved after purification using standard conditions.

Another assay deals with JAK1 (Homo sapiens (Human), UniProt P23458). The assay is described as follows: JAK1 Inhibition Assay (Example B, Omnia kinase fluorescence peptide substrate assay).
Chain of JAK1 (P23458 whole entry): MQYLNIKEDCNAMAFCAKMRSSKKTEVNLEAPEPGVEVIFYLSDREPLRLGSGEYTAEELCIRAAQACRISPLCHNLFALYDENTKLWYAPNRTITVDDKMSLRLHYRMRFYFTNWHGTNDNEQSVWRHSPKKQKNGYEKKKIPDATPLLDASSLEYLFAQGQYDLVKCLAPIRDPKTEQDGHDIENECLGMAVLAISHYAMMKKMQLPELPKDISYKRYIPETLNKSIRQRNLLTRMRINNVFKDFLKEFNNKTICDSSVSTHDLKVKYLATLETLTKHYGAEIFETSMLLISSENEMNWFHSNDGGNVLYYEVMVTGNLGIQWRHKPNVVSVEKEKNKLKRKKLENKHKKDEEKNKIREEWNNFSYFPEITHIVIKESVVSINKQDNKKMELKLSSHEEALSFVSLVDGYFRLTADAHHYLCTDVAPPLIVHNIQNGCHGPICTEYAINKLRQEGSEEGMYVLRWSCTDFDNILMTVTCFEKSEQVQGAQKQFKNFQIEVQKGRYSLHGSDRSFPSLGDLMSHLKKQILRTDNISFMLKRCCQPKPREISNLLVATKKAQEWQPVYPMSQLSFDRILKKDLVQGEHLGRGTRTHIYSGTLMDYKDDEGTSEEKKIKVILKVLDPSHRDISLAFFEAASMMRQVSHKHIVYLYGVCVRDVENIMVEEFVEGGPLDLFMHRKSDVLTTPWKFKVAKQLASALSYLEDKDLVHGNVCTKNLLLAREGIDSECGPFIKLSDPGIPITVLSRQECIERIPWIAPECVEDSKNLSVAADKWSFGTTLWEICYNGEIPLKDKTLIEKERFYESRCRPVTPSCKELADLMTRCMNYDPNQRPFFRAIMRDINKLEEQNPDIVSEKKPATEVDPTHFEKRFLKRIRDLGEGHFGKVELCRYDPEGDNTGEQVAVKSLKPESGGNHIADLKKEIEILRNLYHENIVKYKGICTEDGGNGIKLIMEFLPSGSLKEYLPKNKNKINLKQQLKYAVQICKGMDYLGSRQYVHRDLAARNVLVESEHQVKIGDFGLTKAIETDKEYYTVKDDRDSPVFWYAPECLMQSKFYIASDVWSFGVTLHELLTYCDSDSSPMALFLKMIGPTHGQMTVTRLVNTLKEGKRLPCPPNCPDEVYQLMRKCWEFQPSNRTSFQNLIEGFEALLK
Source text: as §1, §2, §3, §4, §5
Compounds of Formula I were screened for their ability to inhibit JAK1 using the general enzyme inhibition assay method, in which the assay mixture contained 1 mM ATP, 8 μM Omnia® Y12 peptide (Catalog # IVGN KPZ3121C; Invitrogen Corporation, Carlsbad, Calif.) and 12.5 nM JAK1 in a total volume of 25 μL. JAK1 was purchased from Invitrogen Corporation, Carlsbad, Calif. (catalog # IVGN PV4775).

Another assay concerns the target JAK2 (Homo sapiens (Human), UniProt O60674). The assay is described as follows: JAK2 Inhibition Assay (Example C, Omnia kinase fluorescence peptide substrate assay). Particulars: JAK2 Enzyme IC50 1 mM ATP, averaged IC50 ranges.
Source text: as §1, §2, §3, §4, §5
Compounds of Formula I were screened for their ability to inhibit JAK2 using the general enzyme inhibition assay method, in which the assay mixture contained 1 mM ATP, 10 μM Omnia® Y7 peptide (Catalog # IVGN KNZ3071C, Invitrogen Corporation, Carlsbad, Calif.) and 4 nM JAK2 in a total volume of 25 μL. JAK2 was purchased from Invitrogen Corporation, Carlsbad, Calif. (catalog # IVGN PV4288).

A further assay has as its target JAK3 (Homo sapiens (Human), UniProt P52333). The assay is described as follows: JAK3 Inhibition Assay (Example D, Omnia kinase fluorescence peptide substrate assay).
Source text: as §1, §2, §3, §4, §5
Compounds of Formula I were screened for their ability to inhibit JAK3 using the general enzyme inhibition assay method, in which the assay mixture contained 1 mM ATP, 10 μM Omnia® Y7 peptide (Catalog # IVGN KNZ3071C, Invitrogen Corporation, Carlsbad, Calif.) and 2 nM JAK3 in a total volume of 25 μL. JAK3 was purchased from Invitrogen Corporation, Carlsbad, Calif. (catalog # IVGN PV4080).

Where [1] appears, read: JAK1 Enzyme IC50 1 mM ATP, 1 mM ATP, averaged IC50 ranges.

Chain of JAK3 (P52333 whole entry): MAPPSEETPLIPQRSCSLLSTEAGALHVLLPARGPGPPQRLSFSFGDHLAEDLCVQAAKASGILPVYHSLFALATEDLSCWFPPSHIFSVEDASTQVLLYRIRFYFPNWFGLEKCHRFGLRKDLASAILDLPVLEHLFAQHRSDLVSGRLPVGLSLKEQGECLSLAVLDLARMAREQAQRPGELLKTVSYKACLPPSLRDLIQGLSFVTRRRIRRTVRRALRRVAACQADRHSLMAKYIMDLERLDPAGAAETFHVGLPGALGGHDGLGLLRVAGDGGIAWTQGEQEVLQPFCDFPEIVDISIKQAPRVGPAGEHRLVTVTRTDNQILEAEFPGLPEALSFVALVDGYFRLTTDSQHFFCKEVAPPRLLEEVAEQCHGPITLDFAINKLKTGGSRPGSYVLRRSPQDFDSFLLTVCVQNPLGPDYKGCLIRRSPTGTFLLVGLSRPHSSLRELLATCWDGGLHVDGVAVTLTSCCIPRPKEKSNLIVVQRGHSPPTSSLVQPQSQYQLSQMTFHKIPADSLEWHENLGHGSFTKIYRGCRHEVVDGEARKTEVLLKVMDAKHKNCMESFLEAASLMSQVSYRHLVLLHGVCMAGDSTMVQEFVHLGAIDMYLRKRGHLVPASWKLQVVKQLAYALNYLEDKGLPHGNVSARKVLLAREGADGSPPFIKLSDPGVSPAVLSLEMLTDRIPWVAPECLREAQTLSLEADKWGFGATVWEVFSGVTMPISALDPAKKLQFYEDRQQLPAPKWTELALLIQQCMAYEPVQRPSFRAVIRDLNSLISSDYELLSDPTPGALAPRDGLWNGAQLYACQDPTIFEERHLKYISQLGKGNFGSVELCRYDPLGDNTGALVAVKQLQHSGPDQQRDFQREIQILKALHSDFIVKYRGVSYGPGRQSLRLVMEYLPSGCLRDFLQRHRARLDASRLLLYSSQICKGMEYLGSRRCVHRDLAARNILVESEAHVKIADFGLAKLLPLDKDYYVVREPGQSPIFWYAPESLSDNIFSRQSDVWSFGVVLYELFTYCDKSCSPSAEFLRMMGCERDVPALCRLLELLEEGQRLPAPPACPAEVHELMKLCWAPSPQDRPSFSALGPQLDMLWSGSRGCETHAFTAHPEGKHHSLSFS
Chain of Human Tyk2 kinase domain (P29597 886-1187): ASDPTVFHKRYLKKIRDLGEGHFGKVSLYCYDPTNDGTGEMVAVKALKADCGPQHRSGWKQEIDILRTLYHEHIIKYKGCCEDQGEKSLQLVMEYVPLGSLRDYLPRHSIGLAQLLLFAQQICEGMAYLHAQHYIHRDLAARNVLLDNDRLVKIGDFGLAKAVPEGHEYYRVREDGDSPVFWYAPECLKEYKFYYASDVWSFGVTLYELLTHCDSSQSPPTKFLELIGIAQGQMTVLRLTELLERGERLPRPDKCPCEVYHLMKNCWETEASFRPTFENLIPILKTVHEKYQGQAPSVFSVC
Chain of JAK2 (O60674 whole entry): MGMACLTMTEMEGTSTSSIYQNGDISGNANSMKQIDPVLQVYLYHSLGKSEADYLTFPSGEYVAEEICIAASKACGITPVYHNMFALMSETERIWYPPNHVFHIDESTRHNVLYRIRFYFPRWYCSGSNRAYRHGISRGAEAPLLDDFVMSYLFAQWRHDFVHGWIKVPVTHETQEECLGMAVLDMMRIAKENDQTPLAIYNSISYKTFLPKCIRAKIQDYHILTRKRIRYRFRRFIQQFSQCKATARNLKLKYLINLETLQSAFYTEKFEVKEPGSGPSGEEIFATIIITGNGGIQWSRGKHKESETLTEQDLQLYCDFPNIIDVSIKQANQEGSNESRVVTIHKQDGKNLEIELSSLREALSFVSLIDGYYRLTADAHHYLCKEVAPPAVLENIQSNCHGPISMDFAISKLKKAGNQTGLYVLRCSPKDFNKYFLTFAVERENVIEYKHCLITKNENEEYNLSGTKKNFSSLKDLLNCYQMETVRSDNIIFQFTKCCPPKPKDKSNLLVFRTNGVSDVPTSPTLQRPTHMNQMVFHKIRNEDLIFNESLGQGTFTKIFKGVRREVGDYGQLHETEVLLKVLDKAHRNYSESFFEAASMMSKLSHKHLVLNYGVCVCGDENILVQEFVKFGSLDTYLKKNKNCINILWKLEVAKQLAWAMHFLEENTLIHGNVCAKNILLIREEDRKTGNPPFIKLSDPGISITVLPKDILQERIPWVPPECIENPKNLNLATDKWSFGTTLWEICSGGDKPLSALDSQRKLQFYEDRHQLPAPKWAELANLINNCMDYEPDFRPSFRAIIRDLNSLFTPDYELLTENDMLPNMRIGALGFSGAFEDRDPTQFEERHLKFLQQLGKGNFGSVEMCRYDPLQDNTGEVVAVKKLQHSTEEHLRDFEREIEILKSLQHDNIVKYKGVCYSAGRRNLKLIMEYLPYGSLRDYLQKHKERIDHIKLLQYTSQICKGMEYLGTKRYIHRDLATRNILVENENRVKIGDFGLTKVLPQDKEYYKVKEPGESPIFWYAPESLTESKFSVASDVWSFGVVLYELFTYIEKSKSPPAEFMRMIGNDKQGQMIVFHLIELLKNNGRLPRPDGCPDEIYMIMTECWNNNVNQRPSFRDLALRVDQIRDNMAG

With `CCC(CC)n1cc(-c2nc(-c3cnn([C@H](C)[C@H](O)CO)c3)cn3nccc23)cn1` (single isomer, unassigned) [Example 90], the IC50 was in the range of 10 to 100 nM on Human Tyk2 kinase domain, 100 to 1000 nM against JAK1, 10 to 100 nM at JAK2 and 1000 to 10000 nM at JAK3.
As to `CCC(CC)n1cc(-c2nc(-c3cnn([C@@H](C)[C@@H](O)CO)c3)cn3nccc23)cn1` (single isomer, unassigned) [Example 91], the IC50 against Human Tyk2 kinase domain was in the range of 10 to 100 nM; against JAK1, 100 to 1000 nM; against JAK2, 10 to 100 nM; against JAK3, 1000 to 10000 nM.
Regarding `CCC(CC)n1cc(-c2nc(-c3cnn([C@H](C)[C@@H](O)CO)c3)cn3nccc23)cn1` (single isomer, unassigned) [Example 92], the IC50 at Human Tyk2 kinase domain lay in the range of 10 to 100 nM; against JAK1, 100 to 1000 nM; at JAK2, 10 to 100 nM; against JAK3, 1000 to 10000 nM.
`CC1(C)CCC[C@H]1n1cc(-c2nc(-c3cnn(C[C@@H](O)CO)c3)cn3nccc23)cn1` (single isomer, unassigned) [Example 96]: the IC50 at Human Tyk2 kinase domain was in the range of 1000 to 10000 nM; against JAK1 (setting [1]) it was 1000 to 10000 nM; on JAK2, 100 to 1000 nM; against JAK3, 1000 to 10000 nM.
On to `CCC(CC)n1cc(-c2nc(-c3cnn(C[C@@H](CN)OC)c3)cn3nccc23)cn1` (single isomer, unassigned) [Example 148], for which the IC50 against Human Tyk2 kinase domain is 100 to 1000 nM; against JAK1, 1000 to 10000 nM; on JAK2, 100 to 1000 nM; at JAK3, 1000 to 10000 nM.
As to `CCC(CC)n1cc(-c2nc(-c3cnn(C[C@H](CN)OC)c3)cn3nccc23)cn1` (single isomer, unassigned) [Example 149], the IC50 against Human Tyk2 kinase domain was in the range of 10 to 100 nM; on JAK1, 1000 to 10000 nM; at JAK2, 10 to 100 nM; against JAK3 it was 1000 to 10000 nM.
With `C[C@@H]1CCCC[C@H]1n1cc(-c2nc(-c3cnn(C(CO)CO)c3)cn3nccc23)cn1` (single isomer, unassigned) [Example 150], the IC50 on Human Tyk2 kinase domain fell in the range of 10 to 100 nM; on JAK1, 1000 to 10000 nM; at JAK2, 10 to 100 nM; against JAK3, 1000 to 10000 nM.
On to `C[C@@H]1CCCC[C@H]1n1cc(-c2nc(-c3cnn(C[C@@H](O)CO)c3)cn3nccc23)cn1` (single isomer, unassigned) [Example 151], for which the IC50 against Human Tyk2 kinase domain lay within 10 to 100 nM; against JAK1 (setting [1]), 100 to 1000 nM; on JAK2, 10 to 100 nM; on JAK3 it was 1000 to 10000 nM.
For the compound `C[C@@H]1CCCC[C@H]1n1cc(-c2nc(-c3cnn(C[C@H](O)CO)c3)cn3nccc23)cn1` (single isomer, unassigned) [Example 152], the IC50 at Human Tyk2 kinase domain was 10 to 100 nM; on JAK1 (setting [1]) it was 1000 to 10000 nM; against JAK2 it was 10 to 100 nM; against JAK3, 1000 to 10000 nM.
As for `CCC(CC)n1cc(-c2nc(-c3cnn([C@@H]4CCC[C@H]4O)c3)cn3nccc23)cn1` (single isomer, unassigned) [Example 153], the IC50 at Human Tyk2 kinase domain lay within 10 to 100 nM; against JAK1 (setting [1]) it was 100 to 1000 nM; against JAK2, 10 to 100 nM; on JAK3, 1000 to 10000 nM.
Take `CCC(CC)n1cc(-c2nc(-c3cnn([C@H]4CCC[C@@H]4O)c3)cn3nccc23)cn1` (single isomer, unassigned) [Example 154]: the IC50 at Human Tyk2 kinase domain lay within 10 to 100 nM; against JAK1 (setting [1]), 100 to 1000 nM; on JAK2, 10 to 100 nM; against JAK3, 1000 to 10000 nM.
Regarding `CCC(CC)n1cc(-c2nc(-c3cnn([C@@H](C)[C@H](C)O)c3)cn3nccc23)cn1` (single isomer, unassigned) [Example 155], the IC50 against Human Tyk2 kinase domain was 10 to 100 nM; at JAK1 (setting [1]), 100 to 1000 nM; against JAK2, 10 to 100 nM; at JAK3, 1000 to 10000 nM.
With `CC[C@H](CC(F)(F)F)n1cc(-c2nc(-c3cnn(C[C@@H](O)CO)c3)cn3nccc23)cn1` (single isomer, unassigned) [Example 209], the IC50 against Human Tyk2 kinase domain and against JAK2 was 10 to 100 nM in each case.
As to `CCC(CC(F)(F)F)n1cc(-c2nc(-c3cnn(C[C@@H](O)CO)c3)cn3nccc23)cn1` (single isomer, unassigned) [Example 210], the IC50 against Human Tyk2 kinase domain and on JAK2 was 100 to 1000 nM each time.
At JAK2, `CCC(C1CC1)n1cc(-c2nc(-c3cnn(C[C@@H](O)CO)c3)cn3nccc23)cn1` (single isomer, unassigned) [Example 214] displayed an IC50 of 100 to 1000 nM.
`CCC[C@H](C)n1cc(-c2nc(-c3cnn(C[C@H](O)CO)c3)cn3nccc23)cn1` [Example 86, (S)-3-(4-(4-(1-((S)-pentan-2-yl)-1H-pyrazol-4-yl)pyrazolo[1,5-a]pyrazin-6-yl)-1H-pyrazol-1-yl)propane-1,2-diol]: the half-maximal inhibitory concentration (IC50) at JAK1 (setting [1]) lay in the range of 100 to 1000 nM; against JAK2 it was 10 to 100 nM; against JAK3, 1000 to 10000 nM.
Regarding `CCC(CC)n1cc(-c2nc(-c3cnn([C@H]4CC[C@H](O)CC4)c3)cn3nccc23)cn1` [Example 118, trans-4-(4-(4-(1-(pentan-3-yl)-1H-pyrazol-4-yl)pyrazolo[1,5-a]pyrazin-6-yl)-1H-pyrazol-1-yl)cyclohexanol], the IC50 was 10 to 100 nM against Human Tyk2 kinase domain, 10 to 100 nM against JAK1 and < 10 nM against JAK2.
For the compound `CCC(CC)n1cc(-c2nc(-c3cnn([C@H]4CC[C@@H](O)CC4)c3)cn3nccc23)cn1` [Example 121, cis-4-(4-(4-(1-(pentan-3-yl)-1H-pyrazol-4-yl)pyrazolo[1,5-a]pyrazin-6-yl)-1H-pyrazol-1-yl)cyclohexanol], the IC50 lay within 10 to 100 nM at Human Tyk2 kinase domain, 100 to 1000 nM against JAK1 and 10 to 100 nM against JAK2.
For the compound `CCC(CC)n1cc(-c2nc(-c3cnn([C@H]4C[C@@](C)(O)C4)c3)cn3nccc23)cn1` [Example 162, (1s,3s)-1-methyl-3-(4-(4-(1-(pentan-3-yl)-1H-pyrazol-4-yl)pyrazolo[1,5-a]pyrazin-6-yl)-1H-pyrazol-1-yl)cyclobutanol], the IC50 against Human Tyk2 kinase domain is < 10 nM; on JAK1 it was 100 to 1000 nM; on JAK2 it was 10 to 100 nM.
With `CCC(CC)n1cc(-c2nc(-c3cnn(C4CN(C(=O)C(C)(C)O)C4)c3)cn3nccc23)cn1` [Example 176, 2-hydroxy-2-methyl-1-(3-(4-(4-(1-(pentan-3-yl)-1H-pyrazol-4-yl)pyrazolo[1,5-a]pyrazin-6-yl)-1H-pyrazol-1-yl)azetidin-1-yl)propan-1-one], the IC50 against JAK1 was 100 to 1000 nM; against JAK2, 100 to 1000 nM; on JAK3, 1000 to 10000 nM.
Turning to `CCC(CC)n1cc(-c2nc(-c3cnn(C4CN(C(=O)C5(O)CC5)C4)c3)cn3nccc23)cn1` [Example 177, (1-hydroxycyclopropyl)(3-(4-(4-(1-(pentan-3-yl)-1H-pyrazol-4-yl)pyrazolo[1,5-a]pyrazin-6-yl)-1H-pyrazol-1-yl)azetidin-1-yl)methanone], the IC50 on JAK1 fell in the range of 100 to 1000 nM; on JAK2, 10 to 100 nM; at JAK3 it was 1000 to 10000 nM.
`CC[C@H](CC1CC1)n1cc(-c2nc(-c3cnn(C[C@@H](O)CO)c3)cn3nccc23)cn1` [Example 206, (R)-3-(4-(4-(1-((R)-1-cyclopropylbutan-2-yl)-1H-pyrazol-4-yl)pyrazolo[1,5-a]pyrazin-6-yl)-1H-pyrazol-1-yl)propane-1,2-diol]: the half-maximal inhibitory concentration (IC50) at Human Tyk2 kinase domain was […]; at JAK1 (setting [1]) it was […]; against JAK2 it was […].
For `CCC(CC)n1cc(-c2nc(-c3cnn([C@@H](C)CO)c3)cn3nccc23)cn1` [compound 126, (S)-2-(4-(4-(1-(pentan-3-yl)-1H-pyrazol-4-yl)pyrazolo[1,5-a]pyrazin-6-yl)-1H-pyrazol-1-yl)propan-1-ol], the IC50 at JAK1 (setting [1]) lay in the range of 100 to 1000 nM; against JAK2, 10 to 100 nM.
